In PubChem BioAssay AID743395 (Broad Institute, 2014):

Tested on: HepG2 viability, CellTiter-Glo ATP luminescence, 72 h
Assay: viability loss in human hepatoma cells – cell-based, CellTiter-Glo luminescence, cherry-pick, set 2, cytotoxicity control, dose response (AID 743395)

SMILES	AC35 [µM]
CC1OC(OC2CC(O)C3(CO)C4C(O)CC5(C)C(C6=CC(=O)OC6)CCC5(O)C4CCC3(O)C2)C(O)C(O)C1O (stereo not given)	0.201
CC(=O)Nc1cccc(-c2ccnc3c2CC(C)(C(=O)Nc2ccc4c(c2)OCO4)O3)c1 (stereo not given)	17.4
O=C1C=CCC(/C=C/c2ccccc2)O1 (stereo not given)	19
Cc1ccc(-c2ccc3c(c2)O[C@H](CN(C)Cc2ccccn2)[C@@H](C)CN([C@@H](C)CO)S3(=O)=O)cc1	16.8
O=C(O)c1ccccc1-c1c2cc(I)c(=O)c(I)c-2oc2c(I)c(O)c(I)cc12	8.34
COc1ccc(C2=NOC(C(=O)NCc3ccc(F)cc3)C2)cc1OC (stereo not given)	7.73
Nc1c(C(=O)c2ccco2)oc2ccccc12	15.8
COc1cc2c(c(Br)c1N)-c1cc(Br)c(N)cc1C2=O	0.431
CO[C@@]12[C@@H]3N[C@@H]3CN1C1=C(C(=O)C(N)=C(C)C1=O)[C@@H]2COC(N)=O	9.61
C[C@@H]1CN([C@H](C)CO)C(=O)c2cc(NS(=O)(=O)c3ccc(Cl)cc3)ccc2O[C@@H]1CN(C)Cc1ccc(-c2ccccc2)cc1	16.8
Cc1ncc(CO)c(/C=N/Nc2ccc(C(F)(F)F)cn2)c1O	4.63
O=C1/C(=C\c2cc(Cl)c(O)c(Cl)c2)SC(=S)N1Cc1ccccc1	15.4
COc1ccc(NC(=O)c2nc(C)c(C3(C)CC(c4ccccc4)=NO3)s2)cc1 (stereo not given)	17.1
COc1cc(OC)cc(C(=O)N[C@H](C(=O)Nc2nc3ccccc3[nH]2)C(C)C)c1	10.2
Cc1cccc(N2CCN(C(=O)c3ccc4[nH]c(C)c(C)c4c3)CC2)c1C	2.5
COc1ccc(OC)c(/C(C)=N\NC(=O)c2cc3cc(Cl)ccc3n2C)c1	14
C=C1SC(Nc2c(C)cc(C)cc2C)=NC12CCCCC2	17.2
COc1ccccc1CNC(=O)Nc1nc(C(N)Cc2ccc(Cl)cc2)cs1 (stereo not given)	9.79
COc1cccc(S(=O)(=O)N2C[C@@H]3N[C@H](C2)C3c2ccc(-c3cccc(C)c3)cc2)c1 (stereo not given in full)	12
COc1ccc2cc(CN(CC3CCCO3)C(=S)Nc3ccccc3)c(=O)[nH]c2c1 (stereo not given)	13
Cc1c(C(=O)N/N=C/c2c(O)ccc3ccccc23)nnn1-c1nonc1N	1.32
N#CC(C#N)=C1C=C2C=C(N3CCCCCC3)CCC2CC1 (stereo not given)	18
CC(=O)c1ccc(Nc2cc(C)nc3c(C)cc(C)cc23)cc1	7.71
Cc1cc(N/N=C/c2ccccc2O)c2ccccc2n1	19.7
CC(=NNC(=S)N1CC2CCC(CC2)C1)c1cnccn1	0.171

SMILES	AC35 [µM]
COc1ccc(-c2csc(NC(=S)NC(=O)/C=C/c3ccco3)n2)cc1OC	14.3
N#CC1=C(N)Oc2cc(N)ccc2C1c1cccc(F)c1 (stereo not given)	6.38
COc1ccc2c3c(n(C)c2c1)[C@H](CO)N(C(=O)C1CC1)CC31CCN(Cc2cccc(F)c2)CC1	4.68
O=C(Cc1ccc(Br)cc1)NCc1ccccc1	5.52
COc1cc(-c2nccc3cc4c(cc23)OCO4)cc(OC)c1OC	5.6
CN1c2ccc(-c3ccc(F)cc3)cc2[C@H]2[C@H](CCN2S(=O)(=O)c2ccc(F)cc2)[C@H]1CO	19.5
COc1ccc(S(=O)(=O)N2CC[C@@H]3[C@H](CO)N(C)c4ccc(-c5ccc(F)cc5)cc4[C@@H]32)cc1	2.21
COc1ccc2c(c1)sc(N)[n+]2Cc1cc(C)cc2cccnc12	12.4
O=C(N/N=C/c1cc(Br)cc(Cl)c1O)c1ccc2c(c1)OCO2	10.6
CC[n+]1c(-c2ccccc2)c2cc(N)ccc2c2ccc(N)cc21	21.5
CCc1ccc(-c2nc(C(N)=O)c3[nH]c(=O)n(-c4ccccc4OC)c3n2)cc1	9.05
CCCCNC(=O)C(=O)Nc1ccc2c(c1)N(S(=O)(=O)c1cccs1)CCC2	12.7
CC1(C(=O)NCc2ccccc2)Cc2c(-c3ccc(C(N)=O)cc3)ccnc2O1 (stereo not given)	13.8
CCOC(=O)c1cc2c(=Cc3ccc(N(C)C)cc3)c3ccccc3n2[n+]1C	16.6
COC(=O)c1cc(C(=O)N2CCN(c3cccc(Cl)c3)CC2)cc([N+](=O)[O-])c1	14.1
COc1ccc(OC)c(-c2cc(-c3cccnc3)nc(N)c2C#N)c1	10.6
Cc1ccc(S(=O)(=O)Nc2ccc3c(c2)CC(=O)N([C@@H](C)CO)C[C@@H](C)[C@@H](CN(C)Cc2ccc(Cl)c(Cl)c2)O3)cc1	10.3
CCCCNc1c(-c2ccc(SC(C)CC)c(OC)c2)nc2ccc(C)cn12 (stereo not given)	13.6
N#Cc1ccc(-c2cccs2)nc1SCc1cccnc1	0.671
CCCC(=O)NC(c1ccc(N(C)C)cc1)c1ccc2cccnc2c1O (stereo not given)	1.18
COc1ccc(/C(C)=N/NC(=O)c2cccc(S(=O)(=O)N3CCCC3)c2)c(O)c1	0.944
O=C1c2cccc(NCCCNCCO)c2C(=O)c2cccc(NCCCNCCO)c21	3.61
C[C@H]1CN([C@@H](C)CO)S(=O)(=O)c2ccc(C#Cc3ccc(F)cc3)cc2O[C@H]1CN(C)C(=O)NC1CCCC1	19.1
CN1/C(=C\C=C2/SC(=S)NC2=O)C(C)(C)c2ccccc21	17.9
C[C@@H]1CN([C@@H](C)CO)C(=O)Cc2cc(NC(=O)Nc3cccc4ccccc34)ccc2O[C@@H]1CN(C)Cc1ccc(Cl)c(Cl)c1	14.5

SMILES	AC35 [µM]
COC(=O)CSC1=C(C#N)C(c2ccc(C)o2)CC(=O)N1 (stereo not given)	19.1
c1ccc2c(NCCCN3CCOCC3)c3ccccc3nc2c1	2.78
O=C1NC(=O)C(=Cc2c(Cl)cccc2Cl)C(=O)N1	22.2
O=[N+]([O-])c1ccc(/C=C/C2=NN(c3ccccc3)C(c3ccco3)C2)o1 (stereo not given)	15.1
Cc1ccc2nc(-c3ccc4c(c3)OCCO4)cn2c1	8.36
Nc1nc(Cl)nc2c1ncn2C1CC(O)C(CO)O1 (stereo not given)	4.65
O=C(NCCOc1ccccc1F)c1cc([N+](=O)[O-])ccc1N1CCOCC1	13.6
O=C(NCc1ccccc1)C1Cc2c(-c3cccc(F)c3)ccnc2O1 (stereo not given)	22.1
COc1ccc2c3c([nH]c2c1)[C@H](CO)N(S(C)(=O)=O)CC31CCN(Cc2cccc(F)c2)CC1	5.92
COc1ccc([C@H]2CC(=O)C=C(c3c(OC)cccc3OC)C2)cc1	3.37
CCC(COC(=O)c1cc(OC)c(OC)c(OC)c1)(c1ccccc1)N(C)C (stereo not given)	18.4
Nc1c2ccccc2nc2ccccc12	2.63
Cc1cccc(N2CCN(C(=O)c3c(-c4ccccc4)noc3C)CC2)c1C	4.42
CC1CCN(C(=O)C2COc3ccccc3O2)CC1 (stereo not given)	21.8
COc1ccc(-c2ccc3c(c2)[C@H]2[C@H](CCN2S(=O)(=O)c2ccc(OC)cc2)[C@@H](CO)N3C)cc1	18.2
O=C(c1cc(-c2ccncc2)nc2c(Cl)cccc12)N1CCN(c2ccccc2F)CC1	8.73
CC(=NNC(=S)N1CCCCC1)c1cccc(C)n1	15.6
COc1cccc(-c2cc3nc(-c4ccccc4)cc(=O)n3[nH]2)c1	7.55
CCOC(=O)c1c(NC(=O)C(=O)N/N=C/c2ccccc2O)sc2c1CCCCC2	13.7
CCN(CC)c1ccc(/C=N/NC(=O)c2ccco2)c(O)c1	1.13
CCOc1ccc(C)cc1S(=O)(=O)n1cnc2ccccc21	11.7
COc1cccc2c1C(=O)c1c(O)c3c(c(O)c1C2=O)C[C@](O)(C(C)=O)C[C@H]3O[C@@H]1C[C@@H](N)[C@@H](O)[C@@H](C)O1	0.0738
COc1ccc(Nc2nc3cc(-c4sccc4C)sc3c(=O)n2C)cc1OC	5.88
Cc1nc(/N=C(\N)NC(=O)NC2CCCCC2)nc2ccccc12	20.2
Cc1ccc(OCCNC(=O)c2cccc(S(=O)(=O)NCc3ccccc3)c2)cc1	15.2
